Measurements taken from patent publication US12637425B2, “Compounds and formulations for treating ophthalmic diseases” (Visus Therapeutics, Inc., priority 2020, dated 2026).

Biological target: T1, Recombinant cryAB(R120G) protein (Homo sapiens, UniProt P02511, R120G)
T1 sequence (P02511 1-175 R120G): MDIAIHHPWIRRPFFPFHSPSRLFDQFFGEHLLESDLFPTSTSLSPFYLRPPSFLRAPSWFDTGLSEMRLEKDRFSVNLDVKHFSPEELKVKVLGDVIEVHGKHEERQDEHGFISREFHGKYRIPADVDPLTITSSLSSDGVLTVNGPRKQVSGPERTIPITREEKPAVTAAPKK
Assay: Kinetic turbidity aggregation assay of recombinant cryAB(R120G)
Format: biochemical
Details: for inhibition at 25 µM: 25 μM compound, read-out: % Inhibition of Protein Aggregation, 25 μM cmpd; for inhibition at 25 µM / inhibition at 100 µM: 15 μM cryAB(R120G), 42° C., absorbance at 550 nm; for inhibition at 100 µM: 100 μM compound, read-out: % Inhibition of Protein Aggregation, 100 μM cmpd; for IC50: inhibition of cryAB(R120G) protein aggregation
Description: Example A-1: Kinetic Turbidity Aggregation Assay of Recombinant cryAB(R120)
Recombinant cryAB(R120G) protein was diluted to 100 μM in assay buffer (50 mM Tris, 100 mM NaCl, 5 mM DTT, 0.01% Triton X-100, 0.05% PEG-8000). Compounds were dissolved in DMSO at 10 mM then typically diluted to 2.5 mM in DMSO and serially diluted 2-fold as necessary. To a 384-well black microplate in quadruplicate was added 81 μL assay buffer, followed by 15 μL protein solution, and 4 μL compound to give a final concentration of 15 μM cryAB(R120G) protein in 4% DMSO. […] N.D. is not determined.

SMILES | inhibition at 25 µM [%] | inhibition at 100 µM [%] | IC50 [µM]
Cn1ccc2ccc(S(=O)(=O)NCC(c3cn(C)c4ccccc34)N3CCCC3)cc21 (stereo not shown) [Compound 33, 1-methyl-N-(2-(1-methyl-1H-indol-3-yl)-2-(pyrrolidin-1-yl)ethyl)-1H-indole-6-sulfonamide] | 27 | 82.8 | 
CC(=O)N[C@H]1CCN(C(CNS(=O)(=O)c2ccc3cc[nH]c3c2)c2cn(C)c3ccccc23)C1 (stereo partly drawn) [Compound 35, N-((3S)-1-(2-(1H-indole-6-sulfonamido)-1-(1-methyl-1H-indol-3-yl)ethyl)pyrrolidin-3-yl)acetamide] | -19 | 41.7 | 
CCN(C)C(CNS(=O)(=O)c1ccc2cc[nH]c2c1)c1cn(C)c2ccccc12 (stereo not shown) [Compound 37, N-(2-(ethyl(methyl)amino)-2-(1-methyl-1H-indol-3-yl)ethyl)-1H-indole-6-sulfonamide] | 92.8 | 99.9 | ≤ 10
CCN(CC)C(CNS(=O)(=O)c1ccc2cc[nH]c2c1)c1cn(C)c2ccccc12 (stereo not shown) [Compound 38, N-(2-(diethylamino)-2-(1-methyl-1H-indol-3-yl)ethyl)-1H-indole-6-sulfonamide] | 57 | 99.8 | 10 to 50
CN1CCN(C(CNS(=O)(=O)c2ccc3cc[nH]c3c2)c2cn(C)c3ccccc23)CC1 (stereo not shown) [Compound 39, N-(2-(1-methyl-1H-indol-3-yl)-2-(4-methylpiperazin-1-yl)ethyl)-1H-indole-6-sulfonamide] | 18 | 82.5 | 
CN(C)C(CNS(=O)(=O)c1ccc2cc[nH]c2c1)c1cn(C)c2ccc(Cl)cc12 (stereo not shown) [Compound 42, N-(2-(5-chloro-1-methyl-1H-indol-3-yl)-2-(dimethylamino)ethyl)-1H-indole-6-sulfonamide] | 91 | 96.2 | ≤ 10
Cn1cc(C(CNS(=O)(=O)c2ccc3cc[nH]c3c2)N2CCN(CCO)CC2)c2ccccc21 (stereo not shown) [Compound 46, N-(2-(4-(2-hydroxyethyl)piperazin-1-yl)-2-(1-methyl-1H-indol-3-yl)ethyl)-1H-indole-6-sulfonamide] | -4 | 63.1 | 
COC1CCN(C(CNS(=O)(=O)c2ccc3cc[nH]c3c2)c2cn(C)c3ccccc23)CC1 (stereo not shown) [Compound 47, N-(2-(4-methoxypiperidin-1-yl)-2-(1-methyl-1H-indol-3-yl)ethyl)-1H-indole-6-sulfonamide] | 32 | 86.9 | 

Now from value to compound:

inhibition at 25 µM [%] | inhibition at 100 µM [%] | IC50 [µM] | SMILES
99.7 | 83.9 | ≤ 10 | Cn1cc(C(CNS(=O)(=O)c2ccc3cc[nH]c3c2)N2CC[C@H](F)C2)c2ccccc21 (stereo partly drawn) [Compound 36, N-(2-((S)-3-fluoropyrrolidin-1-yl)-2-(1-methyl-1H-indol-3-yl)ethyl)-1H-indole-6-sulfonamide]
16 | 79.7 |  | Cn1cc(C(CNS(=O)(=O)c2ccc3cc[nH]c3c2)N2CCC(O)CC2)c2ccccc21 (stereo not shown) [Compound 40, N-(2-(4-hydroxypiperidin-1-yl)-2-(1-methyl-1H-indol-3-yl)ethyl)-1H-indole-6-sulfonamide]
20 | 98.6 |  | Cn1cc(C(CNS(=O)(=O)c2ccc3cc[nH]c3c2)N2CC[C@H](O)C2)c2ccccc21 (stereo partly drawn) [Compound 43, N-(2-((S)-3-hydroxypyrrolidin-1-yl)-2-(1-methyl-1H-indol-3-yl)ethyl)-1H-indole-6-sulfonamide]
82 | 99.7 | ≤ 10 | Cn1cc(C(CNS(=O)(=O)c2ccc3cc[nH]c3c2)N2CC[C@@H](O)C2)c2ccccc21 (stereo partly drawn) [Compound 44, N-(2-((R)-3-hydroxypyrrolidin-1-yl)-2-(1-methyl-1H-indol-3-yl)ethyl)-1H-indole-6-sulfonamide]
95 | 69.3 |  | Cn1cc(C(CNS(=O)(=O)c2ccc3cc[nH]c3c2)N2CC[C@@H](F)C2)c2ccccc21 (stereo partly drawn) [Compound 45, N-(2-((R)-3-fluoropyrrolidin-1-yl)-2-(1-methyl-1H-indol-3-yl)ethyl)-1H-indole-6-sulfonamide]
